According to patent publication US20100160369A1, “S1P1 Agonists and Methods of Making And Using” (EXELIXIS, INC., priority 2008, published 2010):
Where a name gives a salt, the structure may show the parent alone.

Assays:
Assay type in all cases: cell-based
[1] = molecular target: T1, S1P1 (Homo sapiens, UniProt P21453); experiment: Tango β-arrestin Recruitment Assay in U2OS cells (Assay 2b); set-up: linker with TEV protease (N1a) cleavage site (C); settings: Tango β-arrestin Recruitment Assay, read-out: Assay 2b EC50
Outline: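 Agonist EC50 from percent activity relative to 1 μM S1P efficacy control, using background-subtracted 460/530 nm emission ratios. Compounds (max 1 μM, ten 3-fold dilutions) incubated overnight at 37 °C with serum-starved S1P1 U2OS reporter cells, followed by 2 h β-lactamase reagent at room temperature.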
Target sequence in this assay (P21453 whole entry): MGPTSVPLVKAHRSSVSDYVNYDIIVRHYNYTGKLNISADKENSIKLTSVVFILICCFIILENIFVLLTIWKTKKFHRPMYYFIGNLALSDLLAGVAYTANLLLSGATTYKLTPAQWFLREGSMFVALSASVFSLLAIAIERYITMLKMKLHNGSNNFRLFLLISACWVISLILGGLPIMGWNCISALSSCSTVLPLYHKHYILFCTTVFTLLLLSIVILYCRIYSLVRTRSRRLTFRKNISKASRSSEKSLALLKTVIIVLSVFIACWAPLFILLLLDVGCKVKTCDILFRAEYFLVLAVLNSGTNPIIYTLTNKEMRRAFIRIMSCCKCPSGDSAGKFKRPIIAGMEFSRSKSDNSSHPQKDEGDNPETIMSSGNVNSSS
Target sequence in this assay (P32121 whole entry partner): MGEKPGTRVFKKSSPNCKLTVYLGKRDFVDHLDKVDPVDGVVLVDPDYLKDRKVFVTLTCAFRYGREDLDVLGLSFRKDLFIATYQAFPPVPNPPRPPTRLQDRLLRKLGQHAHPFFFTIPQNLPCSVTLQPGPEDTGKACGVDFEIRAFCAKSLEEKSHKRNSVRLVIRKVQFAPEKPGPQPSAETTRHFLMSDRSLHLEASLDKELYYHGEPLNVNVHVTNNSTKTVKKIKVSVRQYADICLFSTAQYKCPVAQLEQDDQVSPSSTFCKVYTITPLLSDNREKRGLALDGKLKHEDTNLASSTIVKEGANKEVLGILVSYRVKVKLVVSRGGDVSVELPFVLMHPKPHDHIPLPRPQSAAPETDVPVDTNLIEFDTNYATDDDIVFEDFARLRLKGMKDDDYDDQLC

[2] = molecular target: T1, S1P1; experiment: Tango β-arrestin Recruitment Assay in HEK293 cells (Assay 2a); set-up: linker with TEV protease (N1a) cleavage site (C); host or cells: HEK293, transiently transfected; settings: Tango β-arrestin Recruitment Assay, read-out: Assay 2a EC50
Outline: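 Agonist-driven β-arrestin2–TEV recruitment releases tTA to drive luciferase in transiently transfected HEK293 cells. Ten 3-fold dilutions from 10 μM top (1% DMSO), 16–18 h at 37 °C; EC50 fitted to percent activity versus DMSO background and 5 μM S1P efficacy control.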
Target sequence in this assay (P21453 whole entry): as the sequence (P21453 whole entry) above
Target sequence in this assay (P32121 whole entry partner): as the sequence (P32121 whole entry partner) above

[3] = molecular target: T1, S1P1; experiment: CNG cAMP Assay (Assay 1); set-up: host or cells: HEK293 cells expressing the CNG channel; settings: read-out: Assay 1 EC50
Outline: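 cAMP-gated CNG membrane-potential read-out (350/590 nm, T90/T0 ratio) in S1P1/CNG HEK293 cells after 90 min with compound plus NECA 500 nM, S1P 10 nM (EC95), Ro 20-1724 25 μM. Ten 3-fold points from 10 μM, 1.8% DMSO; percent activity vs NECA-only control gives EC50.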
Target sequence in this assay (P21453 whole entry): as the sequence (P21453 whole entry) above

SMILES	EC50 [1] [nM]	EC50 [2] [nM]	EC50 [3] [nM]
C[C@H](O)COc1cc(Cl)c(-c2noc(-c3cn4cc(C(F)(F)F)cc(Br)c4n3)n2)cc1Cl [Example 313, (2S)-1-[(4-{5-[8-bromo-6-(trifluoromethyl)imidazo[1,2-a]pyridin-2-yl]-1,2,4-oxadiazol-3-yl}-2,5-dichlorophenyl)oxy]propan-2-ol]	≤ 100	≤ 100	
OC[C@@H](O)COc1cc(Cl)c(-c2noc(-c3cn4cc(C(F)(F)F)cc(Br)c4n3)n2)cc1Cl [Example 317, (2R)-3-[(4-{5-[8-bromo-6-(trifluoromethyl)imidazo[1,2-a]pyridin-2-yl]-1,2,4-oxadiazol-3-yl}-2,5-dichlorophenyl)oxy]propane-1,2-diol]	≤ 100	≤ 100	
C[C@@H](O)COc1cc(Cl)c(-c2noc(-c3cn4cc(C(F)(F)F)cc(Br)c4n3)n2)cc1Cl [Example 312, (2R)-1-[(4-{5-[8-bromo-6-(trifluoromethyl)imidazo[1,2-a]pyridin-2-yl]-1,2,4-oxadiazol-3-yl}-2,5-dichlorophenyl)oxy]propan-2-ol]	≤ 100	≤ 100	
Oc1cc(Cl)c(-c2nnc(-c3cn4cc(C(F)(F)F)cc(Cl)c4n3)s2)cc1Cl [Example 224, 2,5-dichloro-4-{5-[8-chloro-6-(trifluoromethyl)imidazo[1,2-a]pyridin-2-yl]-1,3,4-thiadiazol-2-yl}phenol]	100 to 500		≤ 100
CC(=O)COc1cc(Cl)c(-c2noc(-c3cn4cc(C(F)(F)F)cc(Cl)c4n3)n2)cc1Cl [Example 182]	≤ 100	≤ 100	
OC(COc1cc(Cl)c(-c2noc(-c3cn4cc(C(F)(F)F)cc(Cl)c4n3)n2)cc1Cl)C(F)(F)F (stereo not drawn) [Entry 77]	≤ 100	≤ 100	
CC(CO)Oc1cc(Cl)c(-c2nc(-c3cn4cc(C(F)(F)F)cc(Cl)c4n3)no2)cc1Cl (stereo not drawn) [Example 227, 2-[(2,5-dichloro-4-{3-[8-chloro-6-(trifluoromethyl)imidazo[1,2-a]pyridin-2-yl]-1,2,4-oxadiazol-5-yl}phenyl)oxy]propan-1-ol]	≤ 100		≤ 100

Continued, values first:

EC50 [1] [nM]	EC50 [2] [nM]	EC50 [3] [nM]	SMILES
≤ 100	≤ 100		O=P(O)(O)OC[C@H](O)COc1cc(Cl)c(-c2noc(-c3cn4cc(C(F)(F)F)cc(Cl)c4n3)n2)cc1Cl [Example 322, (2R)-3-[(2,5-dichloro-4-{5-[8-chloro-6-(trifluoromethyl)imidazo[1,2-a]pyridin-2-yl]-1,2,4-oxadiazol-3-yl}phenyl)oxy]-2-hydroxypropyl dihydrogen phosphate]
≤ 100	≤ 100		CC(O)(CO)COc1cc(Cl)c(-c2noc(-c3cn4cc(C(F)(F)F)cc(Cl)c4n3)n2)cc1Cl (stereo not drawn) [Example 330, 3-[(2,5-dichloro-4-{5-[8-chloro-6-(trifluoromethyl)imidazo[1,2-a]pyridin-2-yl]-1,2,4-oxadiazol-3-yl}phenyl)oxy]-2-methylpropane-1,2-diol]
≤ 100	≤ 100		N[C@H](CO)COc1cc(Cl)c(-c2nnc(-c3cn4cc(C(F)(F)F)cc(Cl)c4n3)s2)cc1F [Example 334, (2R)-2-Amino-3-[(5-chloro-4-{5-[8-chloro-6-(trifluoromethyl)imidazo[1,2-a]pyridin-2-yl]-1,3,4-thiazol-2-yl}-2-fluorophenyl)oxy]propan-1-ol]
≤ 100	≤ 100		C[C@@H](COc1cc(Cl)c(-c2noc(-c3cn4cc(C(F)(F)F)cc(Cl)c4n3)n2)cc1Cl)OS(=O)(=O)O [Example 326, (1S)-2-[(2,5-dichloro-4-{5-[8-chloro-6-(trifluoromethyl)imidazo[1,2-a]pyridin-2-yl]-1,2,4-oxadiazol-3-yl}phenyl)oxy]-1-methylethyl hydrogen sulfate]
≤ 100	≤ 100		C[C@H](COc1cc(Cl)c(-c2noc(-c3cn4cc(C(F)(F)F)cc(Br)c4n3)n2)cc1Cl)OP(=O)(O)O [Example 324, (1R)-2-[(4-{5-[8-bromo-6-(trifluoromethyl)imidazo[1,2-a]pyridin-2-yl]-1,2,4-oxadiazol-3-yl}-2,5-dichlorophenyl)oxy]-1-methylethyl dihydrogen phosphate]
